# Measured values: ChEMBL document CHEMBL1133448, “Computational studies on HIV-1 protease inhibitors: influence of calculated inhibitor-enzyme binding affinities on the statistical quality of 3D-QSAR CoMFA models” (J Med Chem, 2000)
# Biological target: Human immunodeficiency virus type 1 protease (Human immunodeficiency virus 1, UniProt Q72874)
# Test: Inhibition of human immunodeficiency virus type 1 (HIV-1) protease enzyme.
row,SMILES,IC50
1,CC(C)(C)OC(=O)N[C@@H](Cc1ccc(O)cc1)[C@@H](O)C1CCCC1C(=O)NCc1ccccc1 (stereo partly specified),589 nM
2,COC(=O)C1Cc2ccccc2C1NC(=O)[C@H](Cc1ccccc1)C[C@H](O)[C@H](Cc1ccccc1)NC(=O)OC(C)(C)C (stereo partly specified),66.1 nM
3,O=C(NC1c2ccccc2C[C@@H]1O)[C@H](Cc1ccccc1)CC(O)C[C@@H](Cc1ccccc1)C(=O)NC1c2ccccc2C[C@@H]1O (stereo partly specified),0.692 nM
4,CC(C)(C)OC(=O)N[C@@H](Cc1ccccc1)[C@@H](O)C[C@@H](Cc1c(F)c(F)c(F)c(F)c1F)C(=O)NC1c2ccccc2C[C@@H]1O (stereo partly specified),0.603 nM
5,CC(C)(C)OC(=O)N[C@@H](Cc1ccccc1)[C@@H](O)C[C@@H](Cc1ccccc1)C(=O)NC1c2ccccc2C(O)[C@@H]1O (stereo partly specified),0.1 nM
6,CC(C)(C)OC(=O)N[C@@H](Cc1ccccc1)[C@@H](O)C[C@@H](Cc1ccccc1)C(=O)NC1C=CC[C@@H]1O (stereo partly specified),9.55 nM
7,CC(C)(C)OC(=O)N[C@@H](Cc1ccccc1)[C@@H](O)C[C@@H](C/C=C/c1ccccc1)C(=O)NC1c2ccccc2C[C@@H]1O (stereo partly specified),0.229 nM
8,CC(C)(C)OC(=O)N[C@@H](Cc1ccccc1)[C@@H](O)C[C@@H](Cc1ccc(O)cc1)C(=O)NC1c2ccccc2C[C@@H]1O (stereo partly specified),0.158 nM
9,CC(C)(C)OC(=O)N[C@@H](Cc1ccccc1)[C@@H](O)C[C@@H](Cc1ccccc1)C(=O)NC1CCc2ccccc21 (stereo partly specified),33.9 nM
10,CC(C)(C)OC(=O)N[C@@H](Cc1ccccc1)[C@@H](O)C[C@@H](Cc1ccccc1)C(=O)NC1c2ccccc2OC[C@@H]1O (stereo in doubt; 26),0.178 nM
11,CC(C)(C)OC(=O)N[C@@H](Cc1ccccc1)[C@@H](O)C[C@@H](Cc1ccccc1)C(=O)NC1c2ccccc2C[C@@H]1O (stereo partly specified),0.251 nM
12,Cc1ccc(C[C@H](C[C@H](O)[C@H](Cc2ccccc2)NC(=O)OC(C)(C)C)C(=O)NC2c3ccccc3C[C@@H]2O)cc1 (stereo partly specified),0.288 nM
13,CC(C)(C)OC(=O)N[C@@H](Cc1ccccc1)[C@@H](O)C[C@@H](CCCc1ccccc1)C(=O)NC1c2ccccc2C(O)[C@@H]1O (stereo partly specified),0.191 nM
14,CC(C)(C)OC(=O)N[C@@H](Cc1ccccc1)[C@@H](O)CC(=O)NC1c2ccccc2C[C@@H]1O (stereo partly specified),562 nM
15,CC(C)(C)OC(=O)NC(Cc1ccccc1)[C@@H](O)CC(Cc1ccc([N+](=O)[O-])cc1)C(=O)NC1c2ccccc2C[C@@H]1O (stereo partly specified),0.269 nM
16,CC(C)(C)OC(=O)N[C@@H](Cc1ccccc1)[C@@H](O)CC1(Cc2ccccc2)CCCN(C2c3ccccc3C[C@@H]2O)C1=O (stereo partly specified),1260 nM
17,CC(C)(C)OC(=O)NC(Cc1ccccc1)[C@@H](O)CC(CSc1ccccc1)C(=O)NC1c2ccccc2C[C@@H]1O (stereo partly specified),0.251 nM
18,CC(C)(C)OC(=O)NC(Cc1ccccc1)[C@@H](O)CC(Cc1ccc(N)cc1)C(=O)NC1c2ccccc2C[C@@H]1O (stereo partly specified),0.309 nM
19,O=C(N[C@@H](Cc1ccccc1)[C@@H](O)C[C@@H](Cc1ccccc1)C(=O)NC1c2ccccc2C[C@@H]1O)OC1CCOC1 (stereo partly specified),0.0603 nM
20,CC(C)(C)OC(=O)N[C@@H](Cc1ccccc1)[C@@H](O)/C=C(/Cc1ccccc1)C(=O)NC1c2ccccc2C[C@@H]1O (stereo partly specified),1.29 nM
21,C=CC[C@H](C[C@H](O)[C@H](Cc1ccccc1)NC(=O)OC(C)(C)C)C(=O)NC1c2ccccc2C[C@@H]1O (stereo partly specified),27.5 nM
22,CC(C)(C)OC(=O)N[C@@H](Cc1ccccc1)[C@@H](O)C[C@@H](Cc1ccc(C(F)(F)F)cc1)C(=O)NC1c2ccccc2C[C@@H]1O (stereo partly specified),0.257 nM
23,CC(C)(C)OC(=O)N[C@@H](Cc1ccccc1)[C@@H](O)C[C@@H](Cc1ccccc1)C(=O)NC1c2ccccc2OC[C@@H]1O (stereo in doubt; 27),40.7 nM
24,CC(C)(C)OC(=O)N[C@@H](Cc1ccccc1)[C@@H](O)C[C@H](C(=O)NC1c2ccccc2C[C@@H]1O)C(=O)c1ccccc1 (stereo partly specified),5.37 nM
25,CC(C)(C)OC(=O)N[C@@H](Cc1ccccc1)[C@@H](O)C[C@@H](Cc1ccncc1)C(=O)NC1c2ccccc2C[C@@H]1O (stereo partly specified),0.525 nM
26,CC(C)(C)OC(=O)N[C@@H](Cc1ccccc1)[C@@H](O)CCC(=O)NC1c2ccccc2C[C@@H]1O (stereo partly specified),2950 nM
